Measurements reported in ChEMBL document CHEMBL4130359, “Indazole-based ligands for estrogen-related receptor α as potential anti-diabetic agents” (Eur J Med Chem, 2017).

Legend:
Rattus norvegicus [1] = assay: Decrease in fed plasma triglyceride level in Zucker rat sub-chronic fa/fa prediabetic model assessed as change in plasma triglyceride level at 10 mg/kg, po qd for 4 days measured on day 5 relative to control; format: functional; parameters: scale not given: the % may be the effect or the level left
[2] = biological target: T1, Oxysterols receptor LXR-alpha (Homo sapiens, UniProt Q13133); assay: Agonist activity at recombinant GST-tagged human LXRalpha LBD assessed as fluorescein-labeled coactivator peptide recruitment preincubated with enzyme followed by coactivator addition by LanthaScreen TR-FRET assay
[3] = biological target: Retinoic acid receptor beta (Homo sapiens, UniProt P10826); assay: Agonist activity at recombinant GST-tagged human RARbeta LBD assessed as fluorescein-labeled coactivator peptide recruitment preincubated with enzyme followed by coactivator addition by LanthaScreen TR-FRET assay
[4] = biological target: T1, Oxysterols receptor LXR-alpha; assay: Antagonist activity at recombinant GST-tagged human LXRalpha LBD assessed as inhibition of TO901317-induced fluorescein-labeled coactivator peptide recruitment preincubated with enzyme followed by coactivator addition by LanthaScreen TR-FRET assay
[5] = Half life in CD-1 mouse at 5 mg/kg, iv by LC-MS analysis; format: ADME, organism-based; details: in vivo
[6] = Cmax in Sprague-Dawley rat at 10 mg/kg administered via oral gavage by LC-MS analysis; format: ADME, organism-based; parameters: dose 10 mg/kg, route oral; details: in vivo
[7] = Terminal half life in […] at 15 mg/kg administered via oral gavage by LC-MS analysis; format: ADME, organism-based; details: in vivo, read-out: beta t1/2 (converted)
Rattus norvegicus [8] = assay: Antidiabetic activity in Zucker rat sub-chronic fa/fa prediabetic model assessed as fasting blood glucose level at 1 mg/kg, po qd for 31 days measured on day 29 post dose (reference value: 163 +/- 9.2 mg/dl); format: functional
Rattus norvegicus [9] = assay: Antidiabetic activity in Zucker rat sub-chronic fa/fa prediabetic model assessed as blood glucose AUC (0 to 120 min) at 3 mg/kg, po qd for 31 days measured on day 29 post dose by OGTT (reference value: 41471 +/- 2451 mg.min/dL); format: functional
Rattus norvegicus [10] = assay: Antidiabetic activity in Zucker rat sub-chronic fa/fa prediabetic model assessed as blood glucose AUC (0 to 120 min) at 50 mg/kg, po qd for 31 days measured on day 29 post dose by OGTT (reference value: 41471 +/- 2451 mg.min/dL); format: functional
[11] = AUC (0 to 24 hrs) in Zucker rat sub-chronic fa/fa prediabetic model at 3 mg/kg, po qd for 26 days measured on day 26 post last dose; format: ADME, organism-based; parameters: time < 24 hr, dose 3 mg/kg, route oral; details: in vivo
[12] = AUC (0 to 24 hrs) in Zucker rat sub-chronic fa/fa prediabetic model at 10 mg/kg, po qd measured on day 1 post dose; format: ADME, organism-based; parameters: time < 24 hr, dose 10 mg/kg, route oral; details: in vivo
Rattus norvegicus [13] = assay: Toxicity in Zucker rat sub-chronic fa/fa prediabetic model assessed as epididymal white adipose tissue weight at 10 mg/kg, po qd for 31 days measured on day 32 (reference value: 13.9 +/- 0.6 g); format: organism-based; details: in vivo, 744 h
Rattus norvegicus [14] = assay: Toxicity in Zucker rat sub-chronic fa/fa prediabetic model assessed as brown adipose tissue weight at 1 mg/kg, po qd for 31 days measured on day 32 (reference value: 2.1 +/- 0.3 g); format: organism-based; details: in vivo, 744 h
Rattus norvegicus [15] = assay: Toxicity in Zucker rat sub-chronic fa/fa prediabetic model assessed as brown adipose tissue weight at 3 mg/kg, po qd for 31 days measured on day 32 (reference value: 2.1 +/- 0.3 g); format: organism-based; details: in vivo, 744 h
Rattus norvegicus [16] = assay: Toxicity in Zucker rat sub-chronic fa/fa prediabetic model assessed as triglyceride level per gram liver at 50 mg/kg, po qd for 31 days measured on day 32 (reference value: 163.4 +/- 8.3 mg); format: organism-based; details: in vivo, 744 h
Rattus norvegicus [17] = assay: Toxicity in Zucker rat sub-chronic fa/fa prediabetic model assessed as insulin level per gram pancreas at 50 mg/kg, po qd for 31 days measured on day 32 (reference value: 55.2 +/- 5.5 ug); format: organism-based; details: in vivo, 744 h
Rattus norvegicus [18] = assay: Toxicity in Zucker rat sub-chronic fa/fa prediabetic model assessed as serum ALT level at 50 mg/kg, po qd for 31 days measured on day 32 (reference value: 151 +/- 23 U/L); format: organism-based; details: in vivo, 744 h
Rattus norvegicus [19] = assay: Toxicity in Zucker rat sub-chronic fa/fa prediabetic model assessed as serum BUN level at 3 mg/kg, po qd for 31 days measured on day 32 (reference value: 28.3 +/- […]); format: organism-based; details: in vivo, 744 h
[20] = Cmax in […] chronic ob/ob model at 3 mg/kg, po qd measured on day 1 post dose; format: ADME, organism-based; parameters: dose 3 mg/kg, route oral; details: in vivo
[21] = Cmax in […] chronic ob/ob model at 3 mg/kg, po qd for 28 days measured on day 28 post last dose; format: ADME, organism-based; parameters: dose 3 mg/kg, route oral; details: in vivo
[22] = AUC (0 to 24 hrs) in […] model at 10 mg/kg, po qd measured on day 1 post dose; format: ADME, organism-based; parameters: dose 10 mg/kg, time < 24 hr, route oral; details: in vivo
Rattus norvegicus [23] = assay: Toxicity in […] chronic ob/ob model assessed as body weight at 10 mg/kg, po qd for 28 days measured on day 28 post last dose (reference value: 47.3 +/- 1.06 g); format: organism-based; details: in vivo, 672 h
Rattus norvegicus [24] = assay: Toxicity in […] chronic ob/ob model assessed as food intake at 10 mg/kg, po qd for 28 days measured on day 1 to 28 during compound dosing (reference value: 170.6 +/- 3 g); format: organism-based; details: in vivo, 672 h
Rattus norvegicus [25] = assay: Toxicity in […] chronic ob/ob model assessed as epididymal white adipose tissue weight at 50 mg/kg, po qd for 31 days measured on day 32 (reference value: 3.92 +/- 0.14 g); format: organism-based; details: in vivo, 744 h
Rattus norvegicus [26] = assay: Effect on COX6A2 gene expression in epididymal white adipose tissue of Zucker rat sub-chronic fa/fa prediabetic model at 10 mg/kg, po qd for 15 days by microarray analysis relative to control; format: functional
Rattus norvegicus [27] = assay: Effect on NDUFB10 gene expression in epididymal white adipose tissue of Zucker rat sub-chronic fa/fa prediabetic model at 10 mg/kg, po qd for 15 days by microarray analysis relative to control; format: functional
Rattus norvegicus [28] = assay: Effect on ADRA2C gene expression in epididymal white adipose tissue of Zucker rat sub-chronic fa/fa prediabetic model at 10 mg/kg, po qd for 15 days by microarray analysis relative to control; format: functional
Rattus norvegicus [29] = assay: Effect on HMGCS1 gene expression in epididymal white adipose tissue of Zucker rat sub-chronic fa/fa prediabetic model at 10 mg/kg, po qd for 15 days by microarray analysis relative to control; format: functional
Rattus norvegicus [30] = assay: Effect on UCP3 gene expression in epididymal white adipose tissue of Zucker rat sub-chronic fa/fa prediabetic model at 10 mg/kg, po qd for 15 days by microarray analysis relative to control; format: functional
Rattus norvegicus [31] = assay: Effect on IMPA2 gene expression in epididymal white adipose tissue of Zucker rat sub-chronic fa/fa prediabetic model at 10 mg/kg, po qd for 15 days by microarray analysis relative to control; format: functional
Rattus norvegicus [32] = assay: Effect on PGAM2 gene expression in epididymal white adipose tissue of Zucker rat sub-chronic fa/fa prediabetic model at 10 mg/kg, po qd for 15 days by microarray analysis relative to control; format: functional

T1 sequence (Q13133 whole entry, the tested form may be a part): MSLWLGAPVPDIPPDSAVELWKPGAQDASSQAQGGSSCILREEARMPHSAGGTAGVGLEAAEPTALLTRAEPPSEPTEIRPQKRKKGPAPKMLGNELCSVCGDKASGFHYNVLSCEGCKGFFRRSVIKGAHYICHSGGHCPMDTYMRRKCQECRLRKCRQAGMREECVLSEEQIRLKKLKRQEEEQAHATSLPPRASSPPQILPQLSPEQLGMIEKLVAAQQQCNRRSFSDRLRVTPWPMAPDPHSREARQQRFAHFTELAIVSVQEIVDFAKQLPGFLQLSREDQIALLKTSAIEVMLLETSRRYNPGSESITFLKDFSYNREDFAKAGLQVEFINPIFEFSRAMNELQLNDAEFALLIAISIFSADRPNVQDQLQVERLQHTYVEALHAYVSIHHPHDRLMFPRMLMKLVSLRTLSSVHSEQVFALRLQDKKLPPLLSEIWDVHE
Chain of Retinoic acid receptor beta (P10826 whole entry, the tested form may be a part): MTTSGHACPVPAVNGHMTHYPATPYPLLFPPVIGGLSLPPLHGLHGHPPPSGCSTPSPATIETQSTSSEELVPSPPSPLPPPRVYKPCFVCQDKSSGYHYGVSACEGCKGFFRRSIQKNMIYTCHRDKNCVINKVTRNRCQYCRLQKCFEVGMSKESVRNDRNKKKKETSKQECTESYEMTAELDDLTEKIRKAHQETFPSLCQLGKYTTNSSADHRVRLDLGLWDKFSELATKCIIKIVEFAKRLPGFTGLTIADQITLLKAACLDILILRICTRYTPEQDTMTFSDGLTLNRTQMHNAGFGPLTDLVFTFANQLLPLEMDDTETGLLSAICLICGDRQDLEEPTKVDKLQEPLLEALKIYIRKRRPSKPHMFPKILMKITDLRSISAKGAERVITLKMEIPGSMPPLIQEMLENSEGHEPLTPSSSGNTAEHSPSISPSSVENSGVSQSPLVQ

For `CN1CC[C@@H](N2C(=O)S/C(=C\c3ccc4c(cnn4Cc4ccc(Cl)cc4C(F)(F)F)c3)C2=O)[C@H](F)C1`, the Activity (Rattus norvegicus [1]) was -68%, the EC50 [2] was greater than 10 µM and the EC50 [3] was greater than 10 µM. For the same compound, the IC50 [4] was greater than 10 µM, the half-life [5] was 11.8 h and the Cmax [6] was 683 ng/mL. For the same compound, the half-life [7] was 6.7 h, the Activity (Rattus norvegicus [8]) was 123 mg/dL and the Activity (Rattus norvegicus [9]) was 26306 mg·min/dL. The Activity (Rattus norvegicus [10]) was 16701 mg·min/dL, the AUC at 24 h [11] was 10800 ng·h/mL and the AUC(0-t) at 24 h [12] was 18100 ng·h/mL. The Activity (Rattus norvegicus [13]) was 19.1 g, the Activity (Rattus norvegicus [14]) was 3.7 g and the Activity (Rattus norvegicus [15]) was 4.4 g. The Activity (Rattus norvegicus [16]) was 69.4 mg, the Activity (Rattus norvegicus [17]) was 94 µg and the Activity (Rattus norvegicus [18]) was 104 U/L. For the same compound, the Activity (Rattus norvegicus [19]) was 26.3 mg/dL, the Cmax [20] was 207 ng/mL and the Cmax [21] was 223 ng/mL. It also gave an AUC(0-t) at 24 h [22] of 3940 ng·h/mL, an Activity (Rattus norvegicus [23]) of 46.2 g and an Activity (Rattus norvegicus [24]) of 167.8 g. The Activity (Rattus norvegicus [25]) was 2.95 g, the “fold change (FC)” value (Rattus norvegicus [26]) was 1.35 and the “fold change (FC)” value (Rattus norvegicus [27]) was 1.237. The “fold change (FC)” value (Rattus norvegicus [28]) was -1.52, the “fold change (FC)” value (Rattus norvegicus [29]) was -1.387 and the “fold change (FC)” value (Rattus norvegicus [30]) was 2.305. For the same compound, the “fold change (FC)” value (Rattus norvegicus [31]) was 1.526 and the “fold change (FC)” value (Rattus norvegicus [32]) was 1.396.
